Columns and labels:
in vivo = settings: mongrel, dog, iv, [SEQ ID NO: 1] plasma concentration
Protocol: A sandwich immunoassay was developed using an affinity purified goat polyclonal antibody, specific to h-SCP that was pre-coated onto a microplate with integrated electrodes. h-SCP molecules present in the sample will bind to the capture polyclonal antibody coated on the plate. After washing away any unbound substances, a sulfo-tagged mouse monoclonal anti-h-SCP antibody was added. This conjugated antibody will bind to the h-SCP molecules captured on the microplate and the quantity of analyte was determined by electrochemiluminescence. The amount of signal generated is directly proportional to the h-SCP concentration in the sample or standard. The standard curve range is 3.125-1600 pg/mL with a quantifiable range from 10-800 pg/mL. A sample volume of 25 μL (in duplicate) is required for this assay. This immunoassay is specific for human and dog stresscopin and human urocortin III (h-UCN3). […] After completion of the analysis, based on a comparison of reference standards between the ELISA and HPLC method, a correction factor of 1.57 was applied to all bioanalytical data.
The effects of h-SCP (SEQ ID NO:1) on cardiovascular function were also assessed in anaesthetized dogs with advanced, irreversible heart failure of ischemic etiology (Sabbah et al., 1991, Am. J. Physiol., vol. 260, pp. H1379-H1384; Sabbah et al., 1994, Circulation, vol. 98, pp. 2852-2859; Chandler et al., 2002, Circ. Res., vol. 91, pp. 278-280). Progressive, advanced heart failure was produced in mongrel dogs by multiple sequential intracoronary microembolization with polystyrene latex microspheres. Dose infusions of 2.2, 4.3, and 7.3 ng/kg/min were administered intravenously over 60 minutes just following or just prior to hemodynamic, angiographic, echocardiographic, and Doppler measurements using conventional hemodynamic, angiographic, echocardiographic, and radiographic methods. The h-SCP polypeptide (SEQ ID NO:1) produced dose- (infusion-) dependent increases in LVEF and SV and decreases in left ventricular end diastolic pressure (LVEDP), left ventricular pressure during isovolumic relaxation (LV-dP/dt), systemic vascular resistance (SVR), and left ventricular end-systolic volume (LVESV) that correlated with plasma concentration. No significant change in heart rate, peak systolic aortic blood pressure, LV+dP/dt, mean pulmonary artery pressure, mean pulmonary artery wedge pressure, right atrial pressure, or myocardial oxygen consumption were recorded following any of the 1 hour intravenous infusions (Table 18 and FIGS. 12 A & B). The improvement in LV systolic and diastolic function was not associated with the development of de novo ventricular arrhythmias.
In order to determine the threshold effective dose-infusion in dogs with advanced heart failure, a further study was performed at lower dose infusions. In addition, the opportunity was taken to explore whether the increase in LVEF produced by higher dose-infusions of 4.3 ng/kg/min would remain stable over a longer infusion period, i.e. 120 minutes.

healthy subjects = test: Human hemodynamics (impedance cardiography), healthy subjects, 7.5-hour ascending dose IV infusion; type: in vivo; settings: for Heart Rate Change from Baseline / Heart Rate Percent Change from Baseline: post hoc analysis
Protocol: Efficacy was based on the pharmacodynamic evaluation of hemodynamics, which was monitored using the noninvasive technique of impedance cardiography. Heart rate values were collected by impedance cardiography measurements. It was noted that the heart rate of subjects receiving placebo were elevated on the day of their infusions, at baseline before the infusion, and for the first 3 to 4 hours after the infusions were started (FIG. 17). Based on this observation, it appeared that there was a potential effect of period on the observed heart rate.
A mixed-effect model with baseline as covariate, period and dose group (≦3 ng/kg/min−low, >3 to ≦36 ng/kg/min−mid, >36 ng/kg/min−high) as fixed effects, and a random subject effect was established using the heart rate change from baseline in healthy subjects.
To confirm that the statistically significant increase in heart rate is caused by the high dose group, a similar mixed-effect model that excluded the high dose level (>36 ng/kg/min) group was built up.
A post hoc graphical analysis of the hemodynamic data was done to adjust for the elevated baseline values seen just before onset of the infusion, to obtain the best estimate of each hemodynamic parameter, and to correct for the effect of period. A post hoc graphic presentation was prepared from the complete (high frequency) dataset. This dataset contains the raw data that were further processed by the vendor (ie, CardioDynamics) and reported only at specific time points.
In this post hoc analysis an extended baseline was used for each value that included all values recorded before initiation of the infusion. Then an average value for each parameter was obtained from the last 30 minutes of each 2.5 hour infusion and was used as the effect in that period of the infused dose. Each value was modified for the effect of period of infusion by subtracting the mean change from baseline seen in placebo subjects dosed in that same period (placebo subtraction). The dose effect was estimated by averaging the values from all subjects who received the same dose after the placebo subtraction.

“H-TKFTLSLDVPTNIMNLLFNIAKAKNLRAQAAANAHLMAQI-NH2 [SEQ ID NO: 1, TKFTLSLDVPTNIMNLLFNIAKAKNLRAQAAANAHLMAQI-NH2]” showed a level at 1 h (in vivo; 0.22 ng/kg/min) of 0.0412 ± 0.0149 ng/mL, a level at time molar at 1 h (in vivo; 0.22 ng/kg/min) of 0.0094 ± 0.0034 nM and a level at 1 h (in vivo; 0.43 ng/kg/min) of 0.0372 ± 0.0139 ng/mL. The level at time molar at 1 h (in vivo; 0.43 ng/kg/min) was 0.0085 ± 0.0032 nM, the level at 1 h (in vivo; 2.2 ng/kg/min) was 0.141 ± 0.0182 ng/mL and the level at time molar at 1 h (in vivo; 2.2 ng/kg/min) was 0.0324 ± 0.0042 nM. The level at 1 h (in vivo; 4.3 ng/kg/min) was 0.178 ± 0.0211 ng/mL, the level at 2 h (in vivo; 4.3 ng/kg/min) was 0.249 ± 0.0479 ng/mL and the level at time molar at 1 h (in vivo; 4.3 ng/kg/min) was 0.0408 ± 0.0048 nM. For the same substance, the level at time molar at 2 h (in vivo; 4.3 ng/kg/min) was 0.057 ± 0.011 nM, the level at 1 h (in vivo; 7.3 ng/kg/min) was 0.279 ± 0.0296 ng/mL and the level at time molar at 1 h (in vivo; 7.3 ng/kg/min) was 0.0639 ± 0.0068 nM. For the same substance, the “cardiac output or cardiac index” value (healthy subjects; all doses ≦36 ng/kg/min) was “no change in cardiac output or cardiac index”, the “heart rate compared with baseline” value (healthy subjects; doses less than 36 ng/kg/min) was “no notable increase in heart rate compared with baseline” and the “increase in heart rate from baseline” value (healthy subjects; doses of 72 ng/kg/min and higher, end of 2.5-hour infusion period) was about 30 bpm. For the same substance, the “Heart Rate Change from Baseline” value (healthy subjects; infusion rate 0.1 ng/kg/min) was −2.8 bpm, the “Heart Rate Percent Change from Baseline” value (healthy subjects; infusion rate 0.1 ng/kg/min) was −4.6% and the “Heart Rate Change from Baseline” value (healthy subjects; infusion rate 0.3 ng/kg/min) was −0.4 bpm. The “Heart Rate Percent Change from Baseline” value (healthy subjects; infusion rate 0.3 ng/kg/min) was −0.2%, the “Heart Rate Change from Baseline” value (healthy subjects; infusion rate 1 ng/kg/min) was −2.0 bpm and the “Heart Rate Percent Change from Baseline” value (healthy subjects; infusion rate 1 ng/kg/min) was −3.3%. The “Heart Rate Change from Baseline” value (healthy subjects; infusion rate 3 ng/kg/min) was 1.3 bpm, the “Heart Rate Percent Change from Baseline” value (healthy subjects; infusion rate 3 ng/kg/min) was 2.6% and the “Heart Rate Change from Baseline” value (healthy subjects; infusion rate 9 ng/kg/min) was 0.1 bpm. For the same substance, the “Heart Rate Percent Change from Baseline” value (healthy subjects; infusion rate 9 ng/kg/min) was 0.6%, the “Heart Rate Change from Baseline” value (healthy subjects; infusion rate 18 ng/kg/min) was 2.1 bpm and the “Heart Rate Percent Change from Baseline” value (healthy subjects; infusion rate 18 ng/kg/min) was 3.9%. The “Heart Rate Change from Baseline” value (healthy subjects; infusion rate 36 ng/kg/min) was 5.2 bpm, the “Heart Rate Percent Change from Baseline” value (healthy subjects; infusion rate 36 ng/kg/min) was 9.4% and the “Heart Rate Change from Baseline” value (healthy subjects; infusion rate 54 ng/kg/min) was 12.7 bpm. For the same substance, the “Heart Rate Percent Change from Baseline” value (healthy subjects; infusion rate 54 ng/kg/min) was 20.5%, the “Heart Rate Change from Baseline” value (healthy subjects; infusion rate 72 ng/kg/min) was 18.1 bpm and the “Heart Rate Percent Change from Baseline” value (healthy subjects; infusion rate 72 ng/kg/min) was 30.3%. The “Heart Rate Change from Baseline” value (healthy subjects; infusion rate 108 ng/kg/min) was 20.9 bpm, the “Heart Rate Percent Change from Baseline” value (healthy subjects; infusion rate 108 ng/kg/min) was 31.3% and the “Heart Rate Change from Baseline” value (healthy subjects; infusion rate 144 ng/kg/min) was 21.2 bpm. The “Heart Rate Percent Change from Baseline” value (healthy subjects; infusion rate 144 ng/kg/min) was 34.3%.

From patent US20110105397A1, “METHOD FOR TREATING HEART FAILURE WITH STRESSCOPIN-LIKE PEPTIDES” (priority 2009, published 2011)
